Test results reported in ChEMBL document CHEMBL1201862, “PubChem BioAssay data set” (2004).
Where a name gives a salt, the structure may show the parent alone.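 Compound exposure: 48 hours, 5 concentrations, 96-well plates. GI50: concentration for 50% inhibition of growth.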 Active and inactive are the calls of the source. Rule as the data show it: active = GI50 up to about 1.1 µM and inactive = higher. Where a SMILES comes first, the peptide text is derived from it. The star is where a group is joined. Boc = CC(C)(C)OC(=O)*

Tests used:
Assay in all cases: NCI tumour cell line growth inhibition, 48 h
[1] = tested on: A498
[2] = tested on: ACHN
[3] = tested on: HCT-15
[4] = tested on: K562
[5] = tested on: MDA-MB-435
[6] = tested on: MDA-N
[7] = tested on: NCI-H226
[8] = tested on: NCI-H23
[9] = tested on: NCI/ADR-RES
[10] = tested on: RPMI-8226
[11] = tested on: SF-268
[12] = tested on: UO-31
[13] = tested on: HL-60
[14] = tested on: IGROV-1
[15] = tested on: LOX IMVI
[16] = tested on: RXF 393
[17] = tested on: SF-539
[18] = tested on: SR

SMILES | GI50 [1] | GI50 [2] | GI50 [3] | GI50 [4] | GI50 [5] | GI50 [6] | GI50 [7] | GI50 [8] | GI50 [9] | GI50 [10] | GI50 [11] | GI50 [12] | GI50 [13] | GI50 [14] | GI50 [15] | GI50 [16] | GI50 [17] | GI50 [18]
CCCCCCCCCCCCn1c(=O)cc(NCCCC)c2cc3c(NCCCC)cc(=O)n(CCCCCCCCCCCC)c3nc21 | > 100 µM (inactive) | > 100 µM (inactive) | > 100 µM | > 100 µM (inactive) | > 100 µM (inactive) | > 100 µM (inactive) | > 100 µM (inactive) | > 100 µM (inactive) | > 100 µM (inactive) | > 100 µM (inactive) | 99.1 µM (inactive) | > 100 µM (inactive) | – | – | – | – | – | –
O=C(O)c1nn[nH]c1Cl | > 100 µM (inactive) | > 100 µM (inactive) | > 100 µM | > 100 µM (inactive) | > 100 µM (inactive) | > 100 µM (inactive) | > 100 µM (inactive) | > 100 µM (inactive) | > 100 µM (inactive) | > 100 µM (inactive) | > 100 µM (inactive) | > 100 µM (inactive) | > 100 µM (inactive) | > 100 µM (inactive) | > 100 µM (inactive) | > 100 µM (inactive) | > 100 µM (inactive) | –
Cc1c2c(n3c(nc4ccccc43)c1C#N)N(c1ccc(F)cc1)CC2 | > 100 µM (inactive) | > 100 µM (inactive) | > 100 µM | – | > 100 µM (inactive) | – | > 100 µM (inactive) | > 100 µM (inactive) | > 100 µM (inactive) | – | > 100 µM (inactive) | > 100 µM (inactive) | > 100 µM (inactive) | > 100 µM (inactive) | > 100 µM (inactive) | > 100 µM (inactive) | > 100 µM (inactive) | > 100 µM (inactive)
CN(C)c1ccc(/C=N/c2nc3cc4sc(/N=C/c5ccc(N(C)C)cc5)nc4cc3s2)cc1 | 26.7 µM (inactive) | 66.1 µM (inactive) | > 100 µM | 70.1 µM (inactive) | 33.7 µM (inactive) | – | 33.3 µM (inactive) | 28.5 µM (inactive) | > 100 µM (inactive) | 19.1 µM (inactive) | 45 µM (inactive) | 92.7 µM (inactive) | 16.9 µM (inactive) | > 100 µM (inactive) | 47.8 µM (inactive) | – | > 100 µM (inactive) | 29.4 µM (inactive)
Cn1c(=O)c2[nH]c(N=O)nc2n(C)c1=O | > 100 µM (inactive) | – | > 100 µM | > 100 µM (inactive) | > 100 µM (inactive) | > 100 µM (inactive) | > 100 µM (inactive) | > 100 µM (inactive) | > 100 µM (inactive) | > 100 µM (inactive) | > 100 µM (inactive) | > 100 µM (inactive) | > 100 µM (inactive) | > 100 µM (inactive) | > 100 µM (inactive) | > 100 µM (inactive) | > 100 µM (inactive) | –
OCC(O)C(O)C(C=NNc1ncnc2ccc(Br)cc12)=NNc1ncnc2ccc(Br)cc12 (configuration not stated) | 26 µM (inactive) | 1.85 µM (inactive) | – | 2.58 µM (inactive) | 4.79 µM (inactive) | 5.06 µM (inactive) | 2.12 µM (inactive) | – | – | – | 1.16 µM (inactive) | 9.71 µM (inactive) | 0.325 µM (active) | 1.45 µM (inactive) | 0.991 µM (active) | – | 3.13 µM (inactive) | 0.579 µM (active)
COc1ccc(/C=C2\N=C(c3ccccc3)OC2=O)cc1OC(C)=O | > 100 µM (inactive) | 33.6 µM (inactive) | 49.4 µM | 44.9 µM (inactive) | 51.8 µM (inactive) | – | > 100 µM (inactive) | 65.6 µM (inactive) | > 100 µM (inactive) | 32 µM (inactive) | 27.3 µM (inactive) | 58.7 µM (inactive) | 41.1 µM (inactive) | 82.8 µM (inactive) | 51.3 µM (inactive) | > 100 µM (inactive) | > 100 µM (inactive) | 15.2 µM (inactive)
CCOC(=O)c1nc2ccc(C(F)(F)F)cc2nc1Nc1ccc(F)cc1 | > 100 µM (inactive) | > 100 µM (inactive) | > 100 µM | > 100 µM (inactive) | > 100 µM (inactive) | > 100 µM (inactive) | – | 40.3 µM (inactive) | > 100 µM (inactive) | – | 52.1 µM (inactive) | 49.5 µM (inactive) | > 100 µM (inactive) | 87.7 µM (inactive) | > 100 µM (inactive) | 38.5 µM (inactive) | 57.5 µM (inactive) | –
Cc1ccc(C(=O)c2[nH]c(NCc3ccccc3)c(C(=S)Nc3ccccc3)c2N)cc1 | 17 µM (inactive) | 11.4 µM (inactive) | 2.14 µM | 2.13 µM (inactive) | 3.28 µM (inactive) | 3.51 µM (inactive) | 11.5 µM (inactive) | 13.3 µM (inactive) | 2.58 µM (inactive) | 2.15 µM (inactive) | 12.9 µM (inactive) | 5.32 µM (inactive) | 16.3 µM (inactive) | 7.35 µM (inactive) | 2.01 µM (inactive) | 5.78 µM (inactive) | 2.86 µM (inactive) | –
FC(F)(F)c1ccccc1N1CCN(c2nc(-c3cccs3)nc3ccc(Br)cc23)CC1 | 71.3 µM (inactive) | 36.6 µM (inactive) | 7.46 µM | 63.1 µM (inactive) | 23.9 µM (inactive) | – | 30.8 µM (inactive) | 34.4 µM (inactive) | 41.8 µM (inactive) | 11.2 µM (inactive) | 48.8 µM (inactive) | 47.8 µM (inactive) | 36.4 µM (inactive) | 11.6 µM (inactive) | 34.7 µM (inactive) | – | 97.3 µM (inactive) | 31.6 µM (inactive)
CCCCCCC(C)CC(CCCCCC)NCCOC(=O)c1ccc([N+](=O)[O-])cc1 (configuration not stated) | – | 15.1 µM (inactive) | 14.3 µM | < 0.01 µM (active) | – | – | 14.1 µM (inactive) | 18 µM (inactive) | 21.3 µM (inactive) | – | 16.3 µM (inactive) | 11.6 µM (inactive) | – | 14.1 µM (inactive) | 7.4 µM (inactive) | – | 15.8 µM (inactive) | –
COc1ccc2cc(C(=O)Nc3ccc(O)c(C(=O)O)c3)ccc2c1OC | – | > 100 µM (inactive) | > 100 µM | > 100 µM (inactive) | > 100 µM (inactive) | > 100 µM (inactive) | > 100 µM (inactive) | > 100 µM (inactive) | > 100 µM (inactive) | > 100 µM (inactive) | > 100 µM (inactive) | > 100 µM (inactive) | > 100 µM (inactive) | > 100 µM (inactive) | > 100 µM (inactive) | – | > 100 µM (inactive) | > 100 µM (inactive)
Cc1nnc2n1N=C(c1cc(F)c(Cl)cc1Cl)/C(=C/c1ccc(-c3ccc([N+](=O)[O-])cc3)o1)S2 | > 100 µM (inactive) | > 100 µM (inactive) | 53.5 µM | 31.8 µM (inactive) | 50.4 µM (inactive) | – | – | 34.3 µM (inactive) | > 100 µM (inactive) | 34 µM (inactive) | > 100 µM (inactive) | 85.3 µM (inactive) | 46.3 µM (inactive) | > 100 µM (inactive) | 33.2 µM (inactive) | – | – | 34.2 µM (inactive)
C(CCCCc1nnc(N2CCOCC2)o1)CCCc1nnc(N2CCOCC2)o1 | > 100 µM (inactive) | > 100 µM (inactive) | > 100 µM | > 100 µM (inactive) | > 100 µM (inactive) | > 100 µM (inactive) | > 100 µM (inactive) | > 100 µM (inactive) | > 100 µM (inactive) | – | – | > 100 µM (inactive) | > 100 µM (inactive) | > 100 µM (inactive) | > 100 µM (inactive) | > 100 µM (inactive) | > 100 µM (inactive) | –
CC[C@H](C)[C@H]1NC(=O)[C@@H](NC(=O)[C@@H](CC(C)C)N(C)C(=O)C2CCCN2C(=O)[C@H](C)O)[C@@H](C)OC(=O)[C@H](Cc2ccccc2)N(C)C(=O)[C@@H]2CCCN2C(=O)[C@H](CC(C)C)NC(=O)[C@@H](C)C(=O)[C@H](C(C)C)OC(=O)C[C@@H]1O (some centres not stated) | < 0.00625 µM (active) | < 0.00625 µM (active) | 0.00757 µM | < 0.00625 µM (active) | < 0.00625 µM (active) | < 0.00625 µM (active) | < 0.00625 µM (active) | < 0.00625 µM (active) | 0.0589 µM (active) | < 0.00625 µM (active) | < 0.00625 µM (active) | < 0.00625 µM (active) | 0.122 µM (active) | < 0.00625 µM (active) | < 0.00625 µM (active) | < 0.00625 µM (active) | < 0.00625 µM (active) | –
COC(=O)C(Cc1c[nH]c2ccccc12)NC(=O)C(Cc1c[nH]c2ccccc12)NC(=O)C(Cc1c[nH]c2ccccc12)NC(=O)C(Cc1c[nH]c2ccccc12)NC(=O)C(Cc1c[nH]c2ccccc12)NC(=O)C(Cc1c[nH]c2ccccc12)NC(=O)C(Cc1c[nH]c2ccccc12)NC(=O)OC(C)(C)C (configuration not stated) (Boc-WWWWWWW-OMe; configuration not given here) | – | > 100 µM (inactive) | > 100 µM | 64.1 µM (inactive) | > 100 µM (inactive) | 63.7 µM (inactive) | 40.9 µM (inactive) | 64.1 µM (inactive) | – | 46.7 µM (inactive) | > 100 µM (inactive) | 44.9 µM (inactive) | 41.7 µM (inactive) | > 100 µM (inactive) | 84.9 µM (inactive) | – | – | 48 µM (inactive)
CN(C)CCOc1ccc(/C(=C(/CCCl)c2ccccc2)c2ccccc2)cc1 [TOREMIFENE CITRATE] | – | 17.5 µM (inactive) | 14.7 µM | 11.5 µM (inactive) | 17.4 µM (inactive) | 16.4 µM (inactive) | 19.1 µM (inactive) | 17.5 µM (inactive) | 13.7 µM (inactive) | 4.45 µM (inactive) | 17.4 µM (inactive) | 16.7 µM (inactive) | 5.13 µM (inactive) | 21.4 µM (inactive) | 18.1 µM (inactive) | – | 16.2 µM (inactive) | 3.23 µM (inactive)
